Source: PMC11234063, “Eugenol and lidocaine inhibit voltage-gated Na^+ channels from dorsal root ganglion neurons with different mechanisms” (Frontiers in Pharmacology, 2024)
Values joined by “and” are separate entries in the source; they are usually repeats but may differ in a detail not shown here. Identical values can stand only once. “Also recorded” adds a separate entry of the source. Like-named read-outs stand apart in the source and are kept apart here.

Legend:
Format in all cases: cell-based, rat
[1] = test system: total INa (VGSCs naturally expressed on dorsal root ganglion sensory neurons); experiment: Dose–response inhibition of total INa peak, whole-cell patch clamp
[2] = test system: TTX-R INa (VGSCs of DRG neurons)
[3] = test system: total INa (VGSCs of DRG neurons); experiment: Voltage dependence of Na+ conductance activation (I-V and G-V curves), total INa; settings: EUG 2 mM
[4] = test system: TTX-R INa (VGSCs of DRG neurons); experiment: Voltage dependence of Na+ conductance activation (I-V and G-V curves), TTX-R INa; settings: EUG 2 mM
[5] = test system: total INa (VGSCs of DRG neurons); experiment: Steady-state inactivation, 100-ms conditioning pre-pulses, total INa; settings: EUG 2 mM, LID 1 mM
[6] = test system: TTX-R INa (VGSCs of DRG neurons); settings: EUG 2 mM, LID 1 mM
[7] = test system: total INa (VGSCs of DRG neurons); experiment: Inhibition in depolarization time series at 2 and 5 Hz, total INa; settings: EUG 2 mM, LID 1 mM
[8] = test system: TTX-R INa (VGSCs of DRG neurons); settings: EUG 2 mM, LID 1 mM; remark: listed apart in the source
[9] = test system: total INa (VGSCs of DRG neurons); experiment: Slow inactivation entry, three-pulse protocol, total INa
[10] = test system: TTX-R INa (VGSCs of DRG neurons); experiment: Slow inactivation entry, three-pulse protocol, TTX-R INa
DRG neuron = experiment: Action potential firing, current clamp; settings: EUG 1 mM; 1-ms 1-nA depolarizing current injection
[11] = test system: persistent total INa (DRG neurons); experiment: Persistent total INa at the end of 50-ms depolarizing pulses; settings: EUG 2 mM, LID 1 mM
[12] = test system: total INa (VGSCs of DRG neurons); experiment: INa inactivation time constants during test pulse, total INa
[13] = test system: TTX-R INa (VGSCs of DRG neurons); remark: listed apart in the source
[14] = inhibition at all activating voltages
[15] = individual cells, during exposure to EUG 2 mM or LID 1 mM

Structure (SMILES): C=CCc1ccc(O)c(OC)c1 [EUG, 4-allyl-2-methoxyphenol]
- Pre-inhibition of total INa ([1]; EUG at 1.3 mM): ~25%
- Time to inhibition of INa upon addition ([1]; fast single-cell superfusion, 0.2 Hz time series): less than 5 s
- Reversibility of inhibition after drug washout ([1]; total INa): fully reversible
- Dose response curves' data, Average (fractional current), EUG (LID 0.5 mM) ([1]; total INa, EUG 0.1 mM in the presence of LID 0.5 mM): 0.97
- Dose response curves' data, Average (fractional current), EUG (LID 0.5 mM) ([1]; total INa, EUG 0.3 mM in the presence of LID 0.5 mM): 0.85
- Dose response curves' data, Average (fractional current), EUG (LID 0.5 mM) ([1]; total INa, EUG 1 mM in the presence of LID 0.5 mM): 0.60
- Dose response curves' data, Average (fractional current), EUG (LID 0.5 mM) ([1]; total INa, EUG 3 mM in the presence of LID 0.5 mM): 0.46
- Dose response curves' data, Average (fractional current), EUG (LID 0.5 mM) ([1]; total INa, EUG 10 mM in the presence of LID 0.5 mM): 0.10
- Dose response curves' data, Average (fractional current) ([1]; total INa, drug at 0.001 mM): 1.00
- Dose response curves' data, Average (fractional current) ([1]; total INa, drug at 0.1 mM): 0.98
- Dose response curves' data, Average (fractional current) ([1]; total INa, drug at 0.3 mM): 0.93
- Dose response curves' data, Average (fractional current) ([1]; total INa, drug at 1 mM): 0.86
- Dose response curves' data, Average (fractional current) ([1]; total INa, drug at 3 mM): 0.36
- Dose response curves' data, Average (fractional current) ([1]; total INa, drug at 10 mM): 0.07
- Dose response curves' data, Average (fractional current) ([1]; total INa, drug at 30 mM): 0.01
- IC50 ([1]; total INa, holding −110 mV, test +20 mV, drug alone): 2270 ± 75 µM
- Time series of INa blockade, Average (normalized current) ([1]; total INa, time 15 sec, drug exposure): 0.55
- Time series of INa blockade, Average (normalized current) ([1]; total INa, time 20 sec, drug exposure): 0.54
- Time series of INa blockade, Average (normalized current) ([1]; total INa, time 25 sec, drug exposure): 0.54
- Time series of INa blockade, Average (normalized current) ([1]; total INa, time 30 sec, recovery): 0.96
- Time series of INa blockade, Average (normalized current) ([1]; total INa, time 35 sec, recovery): 0.99
- Time series of INa blockade, Average (normalized current) ([1]; total INa, time 40 sec, recovery): 0.99
- Reversibility of inhibition after drug washout [2]: fully reversible
- Dose response curves' data, Average (fractional current) ([2]; drug at 0.1 mM): 0.96
- Dose response curves' data, Average (fractional current) ([2]; drug at 0.3 mM): 0.92
- Dose response curves' data, Average (fractional current) ([2]; drug at 1 mM): 0.85
- Dose response curves' data, Average (fractional current) ([2]; drug at 3 mM): 0.34
- Dose response curves' data, Average (fractional current) ([2]; drug at 10 mM): 0.14
- Dose response curves' data, Average (fractional current) ([2]; drug at 30 mM): 0.00
- IC50 ([2]; holding −110 mV, test +20 mV): 2210 ± 80 µM
- Time series of INa blockade, Average (normalized current) ([2]; time 15 sec, drug exposure): 0.62
- Time series of INa blockade, Average (normalized current) ([2]; time 20 sec, drug exposure): 0.62
- Time series of INa blockade, Average (normalized current) ([2]; time 25 sec, drug exposure): 0.63
- Time series of INa blockade, Average (normalized current) ([2]; time 30 sec, recovery): 1.00
- Time series of INa blockade, Average (normalized current) ([2]; time 35 sec, recovery): 1.04
- Time series of INa blockade, Average (normalized current) ([2]; time 40 sec, recovery): 1.03
- Max slope-act ([3]; LID 1 mM): 5.4 ± 0.41 (n = 9) mV/e-fold
- V1/2-act ([3]; LID 1 mM): −13.8 ± 2.18 (n = 9) mV
- Effect on reversal potential of the currents [3, 14]: without significantly affecting
- Max slope-act in individual cells ([3]; individual cells, LID 1 mM): 5.526 mV/efold and 5.494 mV/efold and 4.967 mV/efold and 6.616 mV/efold and 5.996 mV/efold and 6.156 mV/efold and 4.306 mV/efold and 2.717 mV/efold and 6.496 mV/efold
- V1/2-act in individual cells ([3]; individual cells, LID 1 mM): -10.73 mV and -7.173 mV and -19.64 mV and -5.137 mV and -8.98 mV and -24.01 mV and -14.91 mV and -13.00 mV and -20.84 mV
- Max slope-act ([4]; LID 1 mM): 6.4 ± 0.4 (n = 7) mV/e-fold
- V1/2-act ([4]; LID 1 mM): −11.5 ± 1.96 (n = 7) ns mV
- Effect on reversal potential of the currents [4, 14]: without significantly affecting
- Max slope-act in individual cells ([4]; individual cells, LID 1 mM): 6.818 mV/efold and 6.311 mV/efold and 5.452 mV/efold and 4.894 mV/efold and 8.267 mV/efold and 6.510 mV/efold and 6.698 mV/efold
- V1/2-act in individual cells ([4]; individual cells, LID 1 mM): -9.916 mV and -13.33 mV and -16.67 mV and -10.24 mV and -5.511 mV and -5.684 mV and -19.13 mV
- Max slope-inact [5]: −12.2 ± 10.7 (n = 9) ns mV/e-fold
- V1/2-inact [5]: −63.85 ± 2.92 (n = 9) mV
- Max slope-inact in individual cells ([5]; individual cells): -14.8 mV/efold and -10.65 mV/efold and -13.47 mV/efold and -10.21 mV/efold and -17.93 mV/efold and -9.046 mV/efold and -7.985 mV/efold and -14.87 mV/efold and -11.22 mV/efold
- V1/2-inact in individual cells ([5]; individual cells): -63.75 mV and -57.14 mV and -69.63 mV and -55.48 mV and -75.79 mV and -59.29 mV and -57.64 mV and -78.67 mV and -57.24 mV
- Shift of the steady-state inactivation curve, on average ([6]; 100-ms conditioning pulse): −5 mV
- Max slope-inact [6]: −5.83 ± 0.43 (n = 7) ns mV/e-fold
- V1/2-inact [6]: −36.9 ± 2.48 (n = 7) mV
- Max slope-inact in individual cells ([6]; individual cells): -5.184 mV/efold and -6.728 mV/efold and -5.779 mV/efold and -3.945 mV/efold and -7.158 mV/efold and -6.792 mV/efold and -5.233 mV/efold
- V1/2-inact in individual cells ([6]; individual cells): -28.59 mV and -33.94 mV and -32.48 mV and -34.07 mV and -46.4 mV and -44.79 mV and -37.94 mV
- Fractional inhibition, 2 Hz, 1st pulse [7]: 0.53 ± 0.049 (n = 9)
- Fractional inhibition, 5 Hz, 1st pulse [7]: 0.49 ± 0.056 (n = 8)
- Fractional current after blockade, 2 Hz, 1st pulse, individual cells ([7]; individual cells): 0.40 and 0.52 and 0.58 and 0.37 and 0.28 and 0.50 and 0.730 and 0.29 and 0.53
- Fractional current after blockade, 2 Hz, 20th pulse, individual cells ([7]; individual cells): 0.36 and 0.54 and 0.56 (2×) and 0.34 and 0.15 and 0.49 and 0.74 and 0.26
- Fractional current after blockade, 5 Hz, 1st pulse, individual cells ([7]; individual cells): 0.4 and 0.56 and 0.58 and 0.35
- Fractional current after blockade, 5 Hz, 20th pulse, individual cells ([7]; individual cells): 0.31 (2×) and 0.47 and 0.54
- Fractional inhibition, 2 Hz, 20th pulse [8]: 0.44 ± 0.064 (n = 6)
- Fractional inhibition, 5 Hz, 20th pulse [8]: 0.49 ± 0.061 (n = 6)
- Fractional current after blockade, 2 Hz, 1st pulse, individual cells ([8]; individual cells): 0.62 and 0.6 and 0.47 and 0.55
- Fractional current after blockade, 2 Hz, 20th pulse, individual cells ([8]; individual cells): 0.56 and 0.48 and 0.36 and 0.46
- Fractional current after blockade, 5 Hz, 1st pulse, individual cells ([8]; individual cells): 0.75 and 0.63 and 0.55 and 0.51
- Fractional current after blockade, 5 Hz, 20th pulse, individual cells ([8]; individual cells): 0.66 and 0.54 and 0.36 and 0.43
- Fast inactivation entry time constant ([9]; EUG 2 mM, LID 1 mM): 792.48 ± 298.530 ^ns ms
- Fractional current when P1 = 2 m ([9]; EUG 2 mM, LID 1 mM): 0.82 ± 0.034 ^ns
- Percent fast component (slow inactivation entry) ([9]; EUG 2 mM, LID 1 mM): 26.92 ± 4.583 ^ns %
- Slow inactivation entry time constant ([9]; EUG 2 mM, LID 1 mM): 1,142.30 ± 246.525 ^ns
- Slow inactivation state entry kinetics of INa, individual cells [9, 15]: 713.90 and 1928.00 and 344.50 and 1032.00 and 1066.00
- Fast inactivation entry time constant ([10]; EUG 2 mM, LID 1 mM): 76.58 ± 30.563^ns ms
- Fractional current when P1 = 2 m ([10]; EUG 2 mM, LID 1 mM): 0.93 ± 0.028^ns
- Percent fast component (slow inactivation entry) ([10]; EUG 2 mM, LID 1 mM): 47.56 ± 16.257^ns %
- Slow inactivation entry time constant ([10]; EUG 2 mM, LID 1 mM): 631.05 ± 282.320^ns
- Slow inactivation state entry kinetics of INa, individual cells [10, 15]: 558.80 and 167.30 and 405.40 and 711.30 and 255.80
- Effect on action potential firing (DRG neuron): promptly inhibits action potential firing; also recorded: prevents neurons from firing action potentials
- Inhibition of persistent total INa after 50-ms depolarization [11]: remarkably inhibited; also recorded: effectively inhibits
- Effect on inactivation time constants [12]: unaffected
- Effect on inactivation time constants [13]: unaffected

Structure (SMILES): C/C=C\c1ccc(O)c(OC)c1 [IEUG]
- Dose response curves' data, Average (fractional current) ([1]; total INa, drug at 3 mM): 0.40
- Dose response curves' data, Average (fractional current) ([1]; total INa, drug at 10 mM): 0.02
